One may read the IC50 as the midpoint of a concentration-inhibition curve. Lower therefore signals inhibition by little substance.

SMILES strings stand for the structures.

In this assay the target is Angiotensin-converting enzyme (Cavia porcellus). Kind of assay: Concentration required for 50% inhibition of Angiotensin I converting enzyme.
Take `O=C(NC(Cc1ccccc1)C(=O)CSCC(=O)N1CCC[C@@H]1C(=O)O)c1ccccc1` (stereo not given in full): the IC50 amounted to 0.012 µM.
`O=C(NC(Cc1ccccc1)C(=O)CNCC(=O)N1CCC[C@@H]1C(=O)O)c1ccccc1` (stereo not given in full) showed an IC50 of 0.96 µM.
The result for `Cc1ccc(S(=O)(=O)N(CC(=O)C(Cc2ccccc2)NC(=O)c2ccccc2)CC(=O)N2CCC[C@@H]2C(=O)O)cc1` (stereo not given in full) reads 22 µM.
As for `O=C(NC(Cc1ccccc1)C(=O)COCC(=O)N1CCC[C@@H]1C(=O)O)c1ccccc1` (stereo not given in full), the IC50 was 0.0044 µM.
The result for `O=C(NC(Cc1ccccc1)C(=O)CCCC(=O)N1CCC[C@@H]1C(=O)O)c1ccccc1` (stereo not given in full) reads 0.042 µM.

Values taken from ChEMBL document CHEMBL1122170, “Angiotensin converting enzyme inhibitors: modifications of a tripeptide analogue” (J Med Chem, 1982).
